Laboratory results from publication PMC4792582, “Effect of ceritinib (LDK378) on enhancement of chemotherapeutic agents in ABCB1 and ABCG2 overexpressing cells in vitro and in vivo” (Oncotarget, 2015).

Key:
ABCG2 (BCRP/MXR) [1] = molecular target: T1, ABCG2 (BCRP/MXR) (Homo sapiens, UniProt Q9UNQ0); test: competition of […]-IAAP photoaffinity labeling in membranes; also effect on vanadate-sensitive ATPase activity; assay type: binding; design: Crude membranes from High Five insect cells expressing ABCG2
T1 sequence (Q9UNQ0 1-655): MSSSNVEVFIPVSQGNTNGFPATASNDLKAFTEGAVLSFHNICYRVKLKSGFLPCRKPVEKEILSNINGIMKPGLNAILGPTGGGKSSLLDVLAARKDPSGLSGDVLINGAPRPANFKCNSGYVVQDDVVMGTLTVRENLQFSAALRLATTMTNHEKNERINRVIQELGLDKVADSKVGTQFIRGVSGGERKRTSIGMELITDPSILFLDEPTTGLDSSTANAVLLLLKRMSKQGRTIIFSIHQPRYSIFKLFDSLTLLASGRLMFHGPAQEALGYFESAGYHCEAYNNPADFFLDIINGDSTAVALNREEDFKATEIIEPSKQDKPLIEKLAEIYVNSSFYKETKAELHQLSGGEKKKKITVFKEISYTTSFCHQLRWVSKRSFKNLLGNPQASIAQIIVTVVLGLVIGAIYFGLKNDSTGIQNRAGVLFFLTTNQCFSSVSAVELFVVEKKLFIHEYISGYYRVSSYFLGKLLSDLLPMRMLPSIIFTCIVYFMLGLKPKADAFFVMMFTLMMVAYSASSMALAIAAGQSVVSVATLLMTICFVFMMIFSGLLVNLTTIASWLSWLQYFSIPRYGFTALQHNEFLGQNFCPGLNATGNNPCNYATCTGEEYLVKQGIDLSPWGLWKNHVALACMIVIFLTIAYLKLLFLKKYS

ABCG2 (BCRP/MXR) [2] = molecular target: T1, ABCG2 (BCRP/MXR); test: reversal of mitoxantrone resistance in ABCG2-transfected versus mock HEK293 cells (MTT), […]; assay type: cell-based; design: HEK293/ABCG2-R2 stably transfected cells

| SMILES | competition of [125I]-IAAP photoaffinity labeling in membranes; also effect on v (ABCG2 (BCRP/MXR) [1]) | (fold-reversal) / HEK293/ABCB1 (ABCG2 (BCRP/MXR) [2]) [fold-reversal] |
| --- | --- | --- |
| Cc1cc(Nc2ncc(Cl)c(Nc3ccccc3S(=O)(=O)C(C)C)n2)c(OC(C)C)cc1C1CCNCC1 [Ceritinib, 5-chloro-N2-(2-isopropoxy-5-methyl-4-(piperidin-4-yl)phenyl)-N4-(2-(isopropylsulfonyl)phenyl)pyrimidine-2,4-diamine] | ceritinib binds with high affinity to both the ABCB1 and ABCG2 substrate-binding sites |  |
| COc1ccc2c3c([nH]c2c1)[C@H](C=C(C)C)N1C(=O)[C@@H]2CCCN2C(=O)[C@@H]1C3 [Fumitremorgin C] |  | 26.81 |
